These results are taken from patent publication US20240067639A1, “SMALL MOLECULES THAT TARGET THE RNA THAT CAUSES ALS” (EXPANSION THERAPEUTICS, INC., priority 2020, published 2024).

A word on the Ki: it is a dissociation constant, usually derived from enzyme kinetics or from competition with a known ligand. A lower Ki goes with higher affinity. What is called IC25 is the concentration needed for an effect of 25%.

Assay [1] addresses biotinylated r(G4C2)8 RNA and hnRNP H1-His6. Nature of the assay: TR-FRET hnRNP H binding assay. The procedure, abridged:
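Biotinylated r(G4C2)8 RNA (80 nM), heat-folded at 95 °C then slowly cooled, was preincubated 15 min with compound before hnRNP H1-His6 (75 nM) was added. After 15 min, streptavidin-XL665 (40 nM) and anti-His6-Tb (0.44 ng/μL) were added and TR-FRET was read after 1 h. IC50 was obtained by curve fitting.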
(In TR-FRET formats the signal depends on donor and acceptor labels being close together.)

Assay [2] concerns RAN translation of (G4C2)66-No ATG-GFP in HEK293T cells. Briefly: Cell-based assay of RAN translation inhibition (GFP/mCherry reporter). The following applies: Homo sapiens, HEK-293T, 24 h, read-out: RANT IC25.
Setting [3] is: Table F, HEK293T, 24 h treatment.
The mark [4] stands for this setting: Table D, HEK293T, 24 h treatment.

Molecules are shown by their SMILES. Like-named read-outs stand apart in the source and are kept apart here.

The compound `Cc1c2ccncc2cc2c3cc(OCC4=NCCN4)cc(F)c3n(C)c12` [Compound 254, 9-((4,5-dihydro-1H-imidazol-2-yl)methoxy)-7-fluoro-5,6-dimethyl-6H-pyrido[4,3-b]carbazole] yielded a Ki in assay [1] (Table F) of 1.8 µM. Also, the IC25 in assay [2] (setting [3]) was above 5 µM.

In turn, `Cc1c2ccncc2cc2c3cc(OCCN4CCCCC4)ccc3n(C)c12` [Example 31, 5,6-dimethyl-9-(2-(piperidin-1-yl)ethoxy)-6H-pyrido[4,3-b]carbazole] gave a Ki in assay [1] (Table D) of 4.5 µM. For the same compound, the IC25 in assay [2] was 2.8 µM.

`Cc1c2ccncc2cc2c1sc1ccc(OCCN(C)C)cc12` [Compound 224, N,N-dimethyl-2-((5-methylbenzo[4,5]thieno[2,3-g]isoquinolin-9-yl)oxy)ethanamine] gave a Ki in assay [1] (Table F) of 8.6 µM. In addition, the IC25 in assay [2] is above 5 µM.

`Cc1c2ccncc2cc2c3cc(OCCCN4CCCC4)ccc3n(C)c12` [Compound 9, 5,6-dimethyl-9-(3-(pyrrolidin-1-yl)propoxy)-6H-pyrido[4,3-b]carbazole] yielded an inhibition constant Ki in assay [1] (Table D) of 10 µM. The IC25 in assay [2] (setting [4]) came to 0.27 µM.

Take `Cc1c2ccncc2cc2c3cc(OCCN4CCC(C)CC4)ccc3n(C)c12` [Compound 227, 5,6-dimethyl-9-(2-(4-methylpiperidin-1-yl)ethoxy)-6H-pyrido[4,3-b]carbazole]: the Ki in assay [1] (Table F) was found to be 1.4 µM. In assay [2], the IC25 is above 5 µM.

As to `Cc1c2ccncc2cc2c3cc(OCC(=O)NCCN)ccc3n(C)c12` [Compound 4a, N-(2-aminoethyl)-2-((5,6-dimethyl-6H-pyrido[4,3-b]carbazol-9-yl)oxy)acetamide], the Ki in assay [1] (Table D) is 4.5 µM. Further, the IC25 in assay [2] (setting [4]) worked out at 0.9 µM.

The compound `Cc1c2ccncc2cc2c3c(OCCN4CCOCC4)cccc3n(C)c12` [Example 54, 4-(2-((5,6-dimethyl-6H-pyrido[4,3-b]carbazol-10-yl)oxy)ethyl)morpholine] registered a Ki in assay [1] (Table D) of 13 µM. Also, in assay [2] (setting [4]), the IC25 came to 1.3 µM.

Take `Cc1c2ccncc2cc2c3cc(OCCN4CCC(F)CC4)ccc3n(C)c12` [Compound 229, 9-(2-(4-fluoropiperidin-1-yl)ethoxy)-5,6-dimethyl-6H-pyrido[4,3-b]carbazole]: in assay [1] (Table F), the affinity corresponds to a Ki of 4.2 µM. Besides, the IC25 in assay [2] is 2.2 µM.

Turning to `Cc1c2ccncc2cc2c3cc(OC[C@H]4CCCN4)ccc3n(C)c12` [Example 38, (R)-5,6-dimethyl-9-(pyrrolidin-2-ylmethoxy)-6H-pyrido[4,3-b]carbazole], in assay [1] (Table D), the affinity, expressed as Ki, was 0.76 µM. Besides, the IC25 in assay [2] (setting [4]) is 0.74 µM.

Compound `CC(C)n1c2ccc(OCC3=NCCN3)cc2c2cc3cnccc3cc21` [Compound 256, 9-(4,5-dihydro-1H-imidazol-2-ylmethoxy)-6-isopropyl-pyrido[4,3-b]carbazole] displayed a Ki in assay [1] (Table F) of 42 µM. In addition, the IC25 in assay [2] (setting [3]) is above 5 µM.

`Cc1c2ccncc2cc2c3cc(OCC(N)=O)ccc3n(C)c12` [Compound 12, 2-((5,6-dimethyl-6H-pyrido[4,3-b]carbazol-9-yl)oxy)acetamide]: in assay [1] (Table D), affinity was put at a Ki of 18 µM. For the same compound, the IC25 in assay [2] (setting [4]) turned out to be 0.3 µM.

With `COc1ccc2c(c1)c1cc3ccncc3c(C)c1n2C` [Example 50, 7-methoxy-10,11-dimethyl-10H-pyrido[3,4-b]carbazole], the Ki in assay [1] (Table D) was found to be 33 µM. Also, in assay [2] (setting [4]), the IC25 was 0.27 µM.

As for `COc1ccc2c(c1)c1cc3c(C(=O)NCCCN(C)C)nccc3c(C)c1n2C` [Example 29, N-(3-(dimethylamino)propyl)-9-methoxy-5,6-dimethyl-6H-pyrido[4,3-b]carbazole-1-carboxamide], in assay [1] (Table D), the Ki came to 17 µM. For the same compound, the concentration for an effect of 25% (IC25) in assay [2] (setting [4]) is 0.74 µM.

Take `COc1ccc2c(c1)c1cc3c(C(=O)N[C@@H](C)CN(C)C)nccc3c(C)c1n2C` [Example 27, (S)—N-(1-(dimethylamino)propan-2-yl)-9-methoxy-5,6-dimethyl-6H-pyrido[4,3-b]carbazole-1-carboxamide]: the Ki in assay [1] (Table D) worked out at 9.1 µM. In assay [2] (setting [4]), the IC25 is 1 µM.

Consider `Cc1c2ccncc2cc2c3cc(N4CCN(C)CC4)ccc3n(C)c12` [Compound 243, 5,6-dimethyl-9-(4-methylpiperazin-1-yl)-6H-pyrido[4,3-b]carbazole], for which, in assay [1] (Table F), the Ki worked out at 0.6 µM. For the same compound, in assay [2] (setting [3]), the IC25 was determined as 1.2 µM.

In the case of `Cc1c2ccncc2cc2c3c(OCCN(C)C)cccc3n(C)c12` [Example 55, 2-((5,6-dimethyl-6H-pyrido[4,3-b]carbazol-10-yl)oxy)-N,N-dimethylethanamine], the Ki in assay [1] (Table D) was found to be 1.5 µM. Further, in assay [2], the IC25 amounted to 0.92 µM.

In assay [1] (Table D), `Cc1c2ccncc2cc2c3cc(C(=O)NCCC4CCN(C)CC4)ccc3n(C)c12` [Example 75, 5,6-dimethyl-N-(2-(1-methylpiperidin-4-yl)ethyl)-6H-pyrido[4,3-b]carbazole-9-carboxamide] returned a Ki of 29 µM. Further, the IC25 in assay [2] (setting [4]) is 1.4 µM.

On to `CCN(CC)CCOc1ccc2c(c1)c1cc3cnccc3c(C)c1n2C` [Example 33, 2-((5,6-dimethyl-6H-pyrido[4,3-b]carbazol-9-yl)oxy)-N,N-diethylethanamine], for which the affinity in assay [1] (Table D) corresponds to a Ki of 5.2 µM. The IC25 in assay [2] stood at 3.7 µM.

`Cc1c2ccncc2cc2c3cc(C(=O)NCCO)ccc3n(C)c12` [Example 78, N-(2-hydroxyethyl)-5,6-dimethyl-6H-pyrido[4,3-b]carbazole-9-carboxamide]: in assay [1] (Table D), the Ki was determined as 3.6 µM. Besides, the IC25 in assay [2] (setting [4]) came to 1.6 µM.

`COc1ccc2c(c1)c1cc3c(C(=O)N[C@H](C)CN(C)C)nccc3c(C)c1n2C` [Example 25, (R)—N-(1-(dimethylamino)propan-2-yl)-9-methoxy-5,6-dimethyl-6H-pyrido[4,3-b]carbazole-1-carboxamide] showed a Ki in assay [1] (Table D) of 39 µM. In addition, the IC25 in assay [2] (setting [4]) amounted to 0.27 µM.

For the compound `Cc1c2ccncc2cc2c3cc(OCCCN4CCOCC4)ccc3n(C)c12` [Compound 8, 4-(3-((5,6-dimethyl-6H-pyrido[4,3-b]carbazol-9-yl)oxy)propyl)morpholine], the Ki in assay [1] (Table D) was 11 µM. Besides, the IC25 in assay [2] (setting [4]) is 0.36 µM.

The compound `Cc1c2ccncc2cc2c3cccc(OCC4=NCCN4)c3n(C)c12` [Compound 232, 7-((4,5-dihydro-1H-imidazol-2-yl)methoxy)-5,6-dimethyl-6H-pyrido[4,3-b]carbazole] gave a Ki in assay [1] (Table F) of 2 µM. In assay [2] (setting [3]), the IC25 was above 5 µM.

Compound `Cc1c2ccncc2cc2c3cc(OCCN4CCN(C)CC4)ccc3n(C)c12` [Example 30, 5,6-dimethyl-9-(2-(4-methylpiperazin-1-yl)ethoxy)-6H-pyrido[4,3-b]carbazole] had a Ki in assay [1] (Table D) of 2.5 µM. For the same compound, the IC25 in assay [2] (setting [4]) is 2.2 µM.

In turn, `COc1ccc2c(c1)c1cc3c(C4CCCO4)nccc3c(C)c1n2C` (stereo not shown) [Example 80b, 9-methoxy-5,6-dimethyl-1-(tetrahydrofuran-2-yl)-6H-pyrido[4,3-b]carbazole] had a Ki in assay [1] (Table D) of 9.2 µM. Moreover, in assay [2] (setting [4]), the IC25 is 3.1 µM.

For `Cc1c2ccncc2cc2c3cc(OCCN4CCOCC4)ccc3n(C(C)C)c12` [Compound 235, 4-(2-((6-isopropyl-5-methyl-6H-pyrido[4,3-b]carbazol-9-yl)oxy)ethyl)morpholine], in assay [1] (Table F), the Ki was above 200 µM. The IC25 in assay [2] was above 5 µM.

In assay [1] (Table D), `CCc1nccc2c(C)c3c(cc12)c1cc(OC)ccc1n3C` [Example 80a, 1-ethyl-9-methoxy-5,6-dimethyl-6H-pyrido[4,3-b]carbazole] registered a Ki of 30 µM. In assay [2] (setting [4]), the IC25 was above 5 µM.
